Source: the NIST ThermoML archive (doi:10.1016/j.fluid.2015.10.047)
Numbers after ± are expanded uncertainties.

What was measured:
[1] = Molar enthalpy of transition or fusion; conditions: Crystal; DSC
[2] = Crystal; DTA
[3] = molar heat capacity at constant pressure; conditions: 101.33 kPa, Large sample (1 g) DSC

CO[C@H]1O[C@H](CO)[C@@H](O)[C@H](O)[C@H]1O [methyl-α-D-glucopyranoside]
Conditions | Molar enthalpy of transition or fusion [kcal/mol] | Normal melting temperature [°C]
[1] | 6.7 ± 3.82 | –
[2] | – | 169.18 ± 0.5

[3]
Conditions | molar heat capacity at constant pressure [J/K/mol]
298.15 K, Crystal | 291.48 ± 7.1
303.15 K, Crystal | 294.68 ± 7.2
308.15 K, Crystal | 297.16 ± 7.3
313.15 K, Crystal | 300.15 ± 7.3
318.15 K, Crystal | 302.5 ± 7.4
323.15 K, Crystal | 305.37 ± 7.5
328.15 K, Crystal | 308.34 ± 7.5
333.15 K, Crystal | 311.81 ± 7.6
338.15 K, Crystal | 315.04 ± 7.7
343.13 K, Crystal | 317.77 ± 7.8
348.15 K, Crystal | 320.54 ± 7.8
353.15 K, Crystal | 323.46 ± 7.9
358.15 K, Crystal | 327.84 ± 8
363.15 K, Crystal | 331.47 ± 8.1
368.15 K, Crystal | 334 ± 8.2
373.15 K, Crystal | 336.83 ± 8.2
378.15 K, Crystal | 339.69 ± 8.3
383.15 K, Crystal | 342.52 ± 8.4
388.15 K, Crystal | 345.56 ± 8.5
393.15 K, Crystal | 348.77 ± 8.5
398.15 K, Crystal | 352.33 ± 8.6
403.15 K, Crystal | 356.35 ± 8.7
408.15 K, Crystal | 360.93 ± 8.8
413.15 K, Crystal | 366.26 ± 9
418.15 K, Crystal | 369.54 ± 9.1
423.15 K, Crystal | 372.62 ± 9.1
428.15 K, Crystal | 376.07 ± 9.2
433.15 K, Crystal | 379.37 ± 9.3
453.15 K, Liquid | 510.58 ± 13
458.15 K, Liquid | 511.8 ± 13
463.15 K, Liquid | 513 ± 13
468.15 K, Liquid | 514.17 ± 13
473.15 K, Liquid | 515.44 ± 13
478.15 K, Liquid | 516.62 ± 13
483.15 K, Liquid | 517.93 ± 13
488.15 K, Liquid | 519.22 ± 13
493.15 K, Liquid | 520.14 ± 13
498.15 K, Liquid | 521.17 ± 13
503.15 K, Liquid | 522.4 ± 13
508.15 K, Liquid | 523.64 ± 13
513.15 K, Liquid | 524.87 ± 13
